Where only a bound is given, the exact number is not on record here.

One test concerns Karpas 422 cells. In words: Karpas 422 cell viability, CTG (Cell Titre Glo) assay. In kind it is cell-based, human. The following applies: Homo sapiens; Inhibition of proliferation of Karpas 422 cells (EZH2 Y641N); viability measured Day 4, Day 7 or Day 11, time point of the tabulated values not stated. The gist of the method:
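CellTiter-Glo viability IC50s taken at Day 4, Day 7 and Day 11 of continuous compound exposure (3-fold series, 10µM top, 1.5nM lowest) in RPMI/20% FBS at 37 °C. Y641N-mutant EZH2 lymphoma line seeded at 1000 cells per well; medium and compound replaced on Day 7 for Day 11 read.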

The target in test [1] is purified human, His-tagged PRC2 complex (Homo sapiens, UniProt O75530+Q15910). As to the kind of experiment: Hot Spot HMT assay: inhibition of PRC2 enzymatic activity (transfer of tritiated methyl from SAM to core histone, filter binding). In kind it is biochemical. To be noted: Inhibition of PRC2-mediated enzymatic activity; 10 nM PRC2 complex, 0.05 mg/ml core histone H3, 1 uM 3H-SAM, 1 hr at 30°C. Summed up: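 Serial compound dilutions starting at 1.0 µM were pre-incubated 20 min at 30°C with 10 nM complex (His-EZH2, Flag-EED, His-SUZ12, His-AEBP2, His-RbAp48) and 0.05 mg/ml core H3. Reaction ran 1 hr at 30°C after adding 1 uM [3H]-SAM; scintillation counting followed filtration.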
Chain of purified human, His-tagged PRC2 complex (Q15910 whole entry): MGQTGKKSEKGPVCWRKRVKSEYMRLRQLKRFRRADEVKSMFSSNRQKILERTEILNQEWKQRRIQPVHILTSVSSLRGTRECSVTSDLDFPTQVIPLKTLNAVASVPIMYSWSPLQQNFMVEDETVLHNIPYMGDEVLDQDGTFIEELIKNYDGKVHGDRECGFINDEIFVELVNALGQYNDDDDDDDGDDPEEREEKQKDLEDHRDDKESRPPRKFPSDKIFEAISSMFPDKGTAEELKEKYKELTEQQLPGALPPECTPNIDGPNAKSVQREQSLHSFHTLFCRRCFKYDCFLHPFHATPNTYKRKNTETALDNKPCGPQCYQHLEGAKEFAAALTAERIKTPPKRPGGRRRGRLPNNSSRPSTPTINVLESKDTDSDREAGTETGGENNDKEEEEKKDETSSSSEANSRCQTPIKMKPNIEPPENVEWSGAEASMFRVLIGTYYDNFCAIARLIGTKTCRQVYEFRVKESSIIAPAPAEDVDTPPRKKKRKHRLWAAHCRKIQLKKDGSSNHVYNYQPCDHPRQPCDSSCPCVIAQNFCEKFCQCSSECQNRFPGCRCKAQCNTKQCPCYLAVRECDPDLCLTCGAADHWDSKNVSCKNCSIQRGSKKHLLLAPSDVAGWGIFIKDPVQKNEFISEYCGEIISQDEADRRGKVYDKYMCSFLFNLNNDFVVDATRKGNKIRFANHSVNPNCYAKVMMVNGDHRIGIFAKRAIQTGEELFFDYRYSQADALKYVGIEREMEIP
Chain of purified human, His-tagged PRC2 complex (O75530 whole entry): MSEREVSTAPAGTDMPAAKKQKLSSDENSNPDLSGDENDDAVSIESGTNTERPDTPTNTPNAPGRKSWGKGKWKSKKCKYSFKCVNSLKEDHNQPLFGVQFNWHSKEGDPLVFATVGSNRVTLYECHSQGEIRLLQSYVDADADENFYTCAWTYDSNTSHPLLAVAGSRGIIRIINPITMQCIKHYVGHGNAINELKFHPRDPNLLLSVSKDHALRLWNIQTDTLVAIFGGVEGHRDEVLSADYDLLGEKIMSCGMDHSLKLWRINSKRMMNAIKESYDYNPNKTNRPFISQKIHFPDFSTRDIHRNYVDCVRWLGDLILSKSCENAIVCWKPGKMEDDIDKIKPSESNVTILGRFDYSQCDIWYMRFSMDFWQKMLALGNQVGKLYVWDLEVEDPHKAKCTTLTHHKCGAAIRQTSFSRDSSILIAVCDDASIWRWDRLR
Chain of purified human, His-tagged PRC2 complex (Q15022 whole entry partner): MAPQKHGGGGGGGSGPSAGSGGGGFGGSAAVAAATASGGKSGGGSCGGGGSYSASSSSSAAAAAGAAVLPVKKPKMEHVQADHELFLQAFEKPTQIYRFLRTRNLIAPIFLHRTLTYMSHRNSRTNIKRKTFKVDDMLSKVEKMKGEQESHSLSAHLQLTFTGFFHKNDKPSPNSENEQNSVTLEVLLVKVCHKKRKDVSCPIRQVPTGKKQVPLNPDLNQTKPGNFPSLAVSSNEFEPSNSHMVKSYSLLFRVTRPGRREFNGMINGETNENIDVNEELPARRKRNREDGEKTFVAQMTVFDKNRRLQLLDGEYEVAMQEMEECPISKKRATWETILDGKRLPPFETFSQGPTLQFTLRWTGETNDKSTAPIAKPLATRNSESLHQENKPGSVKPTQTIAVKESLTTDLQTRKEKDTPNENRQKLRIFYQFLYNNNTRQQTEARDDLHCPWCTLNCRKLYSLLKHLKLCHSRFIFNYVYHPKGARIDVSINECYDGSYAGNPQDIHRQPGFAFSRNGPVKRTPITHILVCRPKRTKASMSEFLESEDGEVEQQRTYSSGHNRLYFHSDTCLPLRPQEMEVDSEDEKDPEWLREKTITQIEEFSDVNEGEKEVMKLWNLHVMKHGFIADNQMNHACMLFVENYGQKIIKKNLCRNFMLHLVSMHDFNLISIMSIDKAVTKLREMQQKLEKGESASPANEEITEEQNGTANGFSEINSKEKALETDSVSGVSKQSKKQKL
Chain of purified human, His-tagged PRC2 complex (Q6ZN18 whole entry partner): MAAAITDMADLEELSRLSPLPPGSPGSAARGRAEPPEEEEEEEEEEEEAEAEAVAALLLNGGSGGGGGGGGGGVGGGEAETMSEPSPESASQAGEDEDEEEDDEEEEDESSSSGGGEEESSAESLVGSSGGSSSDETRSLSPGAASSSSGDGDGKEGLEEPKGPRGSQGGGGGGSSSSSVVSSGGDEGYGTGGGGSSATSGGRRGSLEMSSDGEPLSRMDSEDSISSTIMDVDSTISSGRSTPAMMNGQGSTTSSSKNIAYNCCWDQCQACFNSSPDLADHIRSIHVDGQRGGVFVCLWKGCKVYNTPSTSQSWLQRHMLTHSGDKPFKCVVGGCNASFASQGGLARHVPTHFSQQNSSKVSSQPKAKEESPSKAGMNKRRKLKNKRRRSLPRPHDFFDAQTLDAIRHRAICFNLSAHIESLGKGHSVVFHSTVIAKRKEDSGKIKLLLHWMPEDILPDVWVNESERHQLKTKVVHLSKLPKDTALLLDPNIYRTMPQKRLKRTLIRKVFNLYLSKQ
Chain of purified human, His-tagged PRC2 complex (Q09028 whole entry partner): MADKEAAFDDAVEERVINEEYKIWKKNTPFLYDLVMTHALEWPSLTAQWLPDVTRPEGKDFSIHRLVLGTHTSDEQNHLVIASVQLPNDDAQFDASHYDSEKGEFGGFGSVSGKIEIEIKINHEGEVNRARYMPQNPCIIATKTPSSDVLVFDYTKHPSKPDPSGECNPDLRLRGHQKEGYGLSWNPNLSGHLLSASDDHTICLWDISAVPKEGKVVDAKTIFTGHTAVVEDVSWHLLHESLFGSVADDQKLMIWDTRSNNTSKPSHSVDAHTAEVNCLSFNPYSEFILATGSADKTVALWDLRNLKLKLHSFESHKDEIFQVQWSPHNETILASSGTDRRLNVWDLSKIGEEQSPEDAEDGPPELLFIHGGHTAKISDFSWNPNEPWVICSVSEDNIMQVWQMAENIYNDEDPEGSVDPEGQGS

Regarding `COC1CCN(Cc2ccc(-c3cnc(NCc4c(F)ccc5c4CCO5)n4cc(C#N)nc34)cc2)C1` (centres unmarked) [Example 53, 5-(((5-fluoro-2,3-dihydrobenzofuran-4-yl)methyl)amino)-8-(4-((3-methoxypyrrolidin-1-yl)methyl)phenyl)imidazo[1,2-c]pyrimidine-2-carbonitrile], the figures for the IC50 (in the test with Karpas 422 cells; in test [1]) were not above 250 nM and less than 100 nM, respectively.

As for `Cc1nn(C)cc1-c1cnc(NCc2c(F)ccc3c2CCO3)n2cc(C#N)nc12` [Example 72, 8-(1,3-dimethyl-1H-pyrazol-4-yl)-5-(((5-fluoro-2,3-dihydrobenzofuran-4-yl)methyl)amino)imidazo[1,2-c]pyrimidine-2-carbonitrile], the IC50 (in general, the concentration that inhibits the measured activity by half) is more than 500 nM with Karpas 422 cells and less than 100 nM in test [1].

With `Cc1nn(C(C)C)cc1-c1cnc(NCc2c(F)ccc3c2CCO3)n2cc(C(=O)O)nc12` [Example 5, 5-(((5-fluoro-2,3-dihydrobenzofuran-4-yl)methyl)amino)-8-(1-isopropyl-3-methyl-1H-pyrazol-4-yl)imidazo[1,2-c]pyrimidine-2-carboxylic acid], the IC50 in the test on Karpas 422 cells was more than 500 nM; in test [1] it was less than 100 nM.

Turning to `CN(C)C(=O)c1ccc(-c2cnc(NCc3c(F)ccc4c3CCO4)n3cc(C#N)nc23)c(F)c1F` [Example 42, 4-(2-cyano-5-(((5-fluoro-2,3-dihydrobenzofuran-4-yl)methyl)amino)imidazo[1,2-c]pyrimidin-8-yl)-2,3-difluoro-N,N-dimethylbenzamide], the IC50 is not above 250 nM in the test on Karpas 422 cells and less than 100 nM in test [1].

For `CN(C)Cc1ccc(-c2cnc(NCc3c(F)ccc4c3CCO4)n3cc(C#N)nc23)cc1` [Example 112, 8-(4-((dimethylamino)methyl)phenyl)-5-(((5-fluoro-2,3-dihydrobenzofuran-4-yl)methyl)amino)imidazo[1,2-c]pyrimidine-2-carbonitrile], the values for the IC50 (in the test on Karpas 422 cells; in test [1]) were not above 250 nM and less than 100 nM, respectively.

For the molecule `Cc1nn(C[C@H](C)O)c(C)c1-c1cnc(NCc2c(F)ccc3c2CCO3)n2cc(C#N)nc12` [Example 65, (S)-5-(((5-fluoro-2,3-dihydrobenzofuran-4-yl)methyl)amino)-8-(1-(2-hydroxypropyl)-3,5-dimethyl-1H-pyrazol-4-yl)imidazo[1,2-c]pyrimidine-2-carbonitrile], the IC50 in the test on Karpas 422 cells was more than 500 nM; in test [1] it was 100 to 500 nM.

As to `Cc1cc(-c2cnc(NCc3c(F)ccc4occc34)n3cc(C(=O)O)nc23)n(C)n1` [Example 9, 8-(1,3-dimethyl-1H-pyrazol-5-yl)-5-(((5-fluorobenzofuran-4-yl)methyl)amino)imidazo[1,2-c]pyrimidine-2-carboxylic acid], the IC50 in the test on Karpas 422 cells was more than 500 nM; in test [1] it was less than 100 nM.

With `Cc1cc(CN(C)C)c(F)cc1-c1cnc(NCc2c(F)ccc3c2CCO3)n2cc(C#N)nc12` [Example 84, 8-(4-((dimethylamino)methyl)-5-fluoro-2-methylphenyl)-5-(((5-fluoro-2,3-dihydrobenzofuran-4-yl)methyl)amino)imidazo[1,2-c]pyrimidine-2-carbonitrile], the IC50 in the test with Karpas 422 cells was not above 250 nM; in test [1], 100 to 500 nM.

`CCn1cc(-c2cnc(NCc3c(F)ccc4c3CCO4)n3cc(C#N)nc23)cn1` [Example 119, 8-(1-ethyl-1H-pyrazol-4-yl)-5-(((5-fluoro-2,3-dihydrobenzofuran-4-yl)methyl)amino)imidazo[1,2-c]pyrimidine-2-carbonitrile]: the IC50 is not above 250 nM in the test with Karpas 422 cells and 100 to 500 nM in test [1].

For `CN1CCN(C(=O)c2ccc(-c3cnc(NCc4c(F)ccc5c4CCO5)n4cc(C#N)nc34)cc2)CC1` [Example 115, 5-(((5-fluoro-2,3-dihydrobenzofuran-4-yl)methyl)amino)-8-(4-(4-methylpiperazine-1-carbonyl)phenyl)imidazo[1,2-c]pyrimidine-2-carbonitrile], the values for the half-maximal inhibitory concentration (IC50) (in the test on Karpas 422 cells; in test [1]) were not above 250 nM and less than 100 nM, respectively.
